Counter-ions that a name gives are not always drawn.
Molecular target: T1, JAK3 (Homo sapiens, UniProt P52333)
T1 construct: The Ramos B-cell line was acquired from ATCC (ATCC Catalog No. CRL-1596); host or cells: Ramos B-cell line (human)
T1 sequence (P52333 1-1124): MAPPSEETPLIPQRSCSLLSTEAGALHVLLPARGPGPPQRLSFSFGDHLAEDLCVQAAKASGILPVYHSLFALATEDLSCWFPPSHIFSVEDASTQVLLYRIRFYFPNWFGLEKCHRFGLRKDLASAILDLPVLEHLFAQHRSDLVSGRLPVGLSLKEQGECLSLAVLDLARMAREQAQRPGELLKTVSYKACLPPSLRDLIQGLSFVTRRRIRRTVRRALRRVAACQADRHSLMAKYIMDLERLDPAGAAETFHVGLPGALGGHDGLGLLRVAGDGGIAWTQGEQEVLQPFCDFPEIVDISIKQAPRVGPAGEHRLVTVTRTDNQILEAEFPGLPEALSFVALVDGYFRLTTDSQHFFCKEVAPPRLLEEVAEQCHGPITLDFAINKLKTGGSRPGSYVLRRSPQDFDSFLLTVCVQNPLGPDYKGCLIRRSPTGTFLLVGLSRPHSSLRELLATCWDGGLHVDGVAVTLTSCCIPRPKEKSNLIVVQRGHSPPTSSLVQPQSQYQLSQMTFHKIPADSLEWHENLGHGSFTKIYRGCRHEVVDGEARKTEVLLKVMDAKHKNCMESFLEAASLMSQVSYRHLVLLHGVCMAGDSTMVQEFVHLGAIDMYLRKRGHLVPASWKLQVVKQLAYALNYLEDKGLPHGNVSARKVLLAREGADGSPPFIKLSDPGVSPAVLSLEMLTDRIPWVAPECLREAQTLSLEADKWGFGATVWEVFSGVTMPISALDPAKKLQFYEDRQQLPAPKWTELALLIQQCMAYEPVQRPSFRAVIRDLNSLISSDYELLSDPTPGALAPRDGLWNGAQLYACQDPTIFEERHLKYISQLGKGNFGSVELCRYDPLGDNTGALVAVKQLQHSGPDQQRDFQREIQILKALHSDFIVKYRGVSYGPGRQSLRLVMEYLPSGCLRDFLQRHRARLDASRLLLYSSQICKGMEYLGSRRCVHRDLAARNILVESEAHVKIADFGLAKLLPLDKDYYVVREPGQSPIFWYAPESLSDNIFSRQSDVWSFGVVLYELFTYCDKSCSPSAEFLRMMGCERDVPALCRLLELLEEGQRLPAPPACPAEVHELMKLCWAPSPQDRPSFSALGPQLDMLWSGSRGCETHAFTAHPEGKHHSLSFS
Test: Assay for CD23 expression on Ramos B-cells stimulated by IL-4 (Table IV: ability to inhibit JAK3 activity)
Format: cell-based
Conditions: tested under conditions described in Example 3 (so in the source)
How it was run: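 IL-4-induced CD23 surface expression on human Ramos B cells, detected by flow cytometry after 20–24 h stimulation (IL-4 final 50 units/mL). Compound or DMSO added 1 h beforehand at 37 °C; cells kept in RPMI with 5% serum.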

Structure (SMILES)	IC50 [nM]
COc1cc(Nc2ncc(C)c(Nc3ccc4oc(=O)[nH]c4c3)n2)cc(C)c1CO [Compound I-129, 4-(4-(2,3-dihydro-2-oxobenzo[d]oxazol-5-ylamino)-5-methylpyrimidin-2-ylamino)-2-methoxy-6-methylbenzyl alcohol trifluoroacetate salt]	< 500
Cc1cnc(Nc2cccc(N(C)C)c2)nc1Nc1ccc2oc(=O)[nH]c2c1 [Compound I-24, 5-[2-(3-Dimethylamino-phenylamino)-5-methyl-pyrimidin-4-ylamino]-3H-benzooxazol-2-one trifluoroacetate salt]	< 500
Cc1cc(Nc2ncc(Br)c(Nc3ccc4oc(=O)[nH]c4c3)n2)cc(C)c1C [Compound I-16, 5-(5-bromo-2-(3,4,5-trimethylphenylamino)pyrimidin-4-ylamino)benzo[d]oxazol-2(3H)-one formate salt]	< 500
COC(=O)c1cnc(Nc2cc(C)c(F)c(OC)c2)nc1Nc1ccc2oc(=O)[nH]c2c1 [Compound I-58, 2-(4-Fluoro-3-methoxy-5-methyl-phenylamino)-4-(2-oxo-2,3-dihydro-benzooxazol-5-ylamino)-pyrimidine-5-carboxylic acid methyl ester trifluoroacetate salt]	> 10000
COc1cccc(Nc2ncc(C)c(Nc3ccc4oc(=O)[nH]c4c3)n2)c1F [Compound I-19, 5-[2-(2-Fluoro-3-methoxy-phenylamino)-5-methyl-pyrimidin-4-ylamino]-3H-benzooxazol-2-one]	< 500
COc1ccc(Nc2ncc(Cl)c(Nc3ccc4oc(=O)[nH]c4c3)n2)c(F)c1OC [Compound I-51, 5-(5-chloro-2-(2-fluoro-3,4-dimethoxyphenylamino)pyrimidin-4-ylamino)benzo[d]oxazol-2(3H)-one trifluoroacetate salt]	< 500
Cc1cnc(Nc2cc(C)c(C)c(C)c2)nc1Nc1cc(CN(C)C)c2oc(=O)[nH]c2c1 [Compound I-89, 5-(2-(3,4,5-trimethylphenylamino)-5-methylpyrimidin-4-ylamino)-7-((dimethylamino)methyl)benzo[d]oxazol-2(3H)-one ditrifluoroacetate salt]	500 to 5000
COc1ccc(Nc2ncc(C)c(Nc3ccc4oc(=O)[nH]c4c3)n2)c(F)c1OC [Compound I-102, 5-(2-(2-fluoro-3,4-d6-dimethoxyphenylamino)-5-methylpyrimidin-4-ylamino)benzo[d]oxazol-2(3H)-one]	< 500
COc1ccc(Nc2ncc(C)c(Nc3ccc4oc(=O)[nH]c4c3)n2)cc1N [Compound I-34, 5-[2-(3-Amino-4-methoxy-phenylamino)-5-methyl-pyrimidin-4-ylamino]-3H-benzooxazol-2-one]	< 500
O=c1[nH]c2cc(Nc3nc(Nc4ccc(C(F)(F)F)cc4)ncc3Cl)ccc2o1 [Compound I-15, 5-(5-chloro-2-(4-(trifluoromethyl)phenylamino)pyrimidin-4-ylamino)benzo[d]oxazol-2(3H)-one trifluoroacetate salt]	< 500
Cc1cc(Nc2ncc(Cl)c(Nc3ccc4oc(=O)[nH]c4c3)n2)cc(C)c1C [Compound I-6, 5-(5-chloro-2-(3,4,5-trimethylphenylamino)pyrimidin-4-ylamino)benzo[d]oxazol-2(3H)-one trifluoroacetate salt]	> 10000
Cc1cc(Nc2ncc(Cl)c(Nc3ccc4oc(=O)[nH]c4c3)n2)cc(C)c1C#N [Compound I-69, 4-(5-chloro-4-(2-oxo-2,3-dihydrobenzo[d]oxazol-5-ylamino)pyrimidin-2-ylamino)-2,6-dimethylbenzonitrile] trifluoroacetate salt]	< 500
COCCOc1c(C)ccc(Nc2ncc(Cl)c(Nc3ccc4oc(=O)[nH]c4c3)n2)c1F [Compound I-66, 5-(5-chloro-2-(2-fluoro-3-(2-methoxyethoxy)-4-methylphenylamino)pyrimidin-4-ylamino)benzo[d]oxazol-2(3H)-one trifluoroacetate salt]	< 500
COc1c(C)ccc(Nc2ncc(C)c(Nc3ccc4oc(=O)[nH]c4c3)n2)c1F [Compound I-29, 5-[2-(2-Fluoro-3-methoxy-4-methyl-phenylamino)-5-methyl-pyrimidin-4-ylamino]-3H-benzooxazol-2-one trifluoroacetate salt]	< 500
Cc1cnc(Nc2ccc(N(C)C)cc2)nc1Nc1ccc2oc(=O)[nH]c2c1 [Compound I-25, 5-[2-(4-Dimethylamino-phenylamino)-5-methyl-pyrimidin-4-ylamino]-3H-benzooxazol-2-one]	< 500

Next, values leading:

IC50 [nM]	Structure (SMILES)
< 500	O=C1NCC=Cc2cc(Nc3ncc(F)c(Nc4ccc5oc(=O)[nH]c5c4)n3)ccc21 [II-23, 5-(5-fluoro-2-(1-oxo-2,3-dihydro-1H-benzo[c]azepin-7-ylamino)pyrimidin-4-ylamino)benzo[d]oxazol-2(3H)-one formate salt]
> 10000	COc1cc(C)cc(Nc2ncc(F)c(Nc3cc(F)c4oc(=O)[nH]c4c3)n2)c1 [Compound I-179, 5-(2-(3-methoxy-5-methylphenylamino)-5-fluoropyrimidin-4-ylamino)-7-fluorobenzo[d]oxazol-2(3H)-one trifluoroacetate salt]
< 500	Cc1cnc(Nc2ccc3c(c2)C(=O)OC3)nc1Nc1ccc2oc(=O)[nH]c2c1 [II-8, 5-methyl-N4-(2-oxo-2,3-dihydro-1,3-benzoxazol-5-yl)-N2-(1-oxo-1,3-dihydro-isobenzofuran-6-yl)-2,4-pyrimidinediamine]
> 10000	Cc1cnc(Nc2ccc(C#N)c(C)n2)nc1Nc1ccc2oc(=O)[nH]c2c1 [II-16, N2-(5-cyano-6-methylpyridin-2-yl)-5-methyl-N4-(2-oxo-2,3-dihydro-1,3-benzoxazol-5-yl)-2,4-pyrimidinediamine]
< 500	O=C(Nc1ccccc1)c1ccc(Nc2ncc(F)c(Nc3ccc4oc(=O)[nH]c4c3)n2)cc1C(F)(F)F [Compound I-166, 4-(5-fluoro-4-(2-oxo-2,3-dihydrobenzo[d]oxazol-5-ylamino)pyrimidin-2-ylamino)-N-phenyl-2-(trifluoromethyl)benzamide formate salt]
< 500	Cc1cc(Nc2nc(Nc3ccc(F)c(S(C)(=O)=O)c3)ncc2F)cc2[nH]c(=O)oc12 [Compound I-173, 5-(2-(4-fluoro-3-(methylsulfonyl)phenylamino)-5-fluoropyrimidin-4-ylamino)-7-methylbenzo[d]oxazol-2(3H)-one trifluoroacetate salt]
5000 to 10000	Cc1cnc(Nc2cc(C)c(C)c(C)c2)nc1Nc1ccc2oc(=O)n(COP(=O)(O)OCCN(C)C)c2c1 [Compound I-133, N4-{3-[2-(N,N-dimethylamino)ethoxy]phosphinyloxymethyl-2-oxo-2,3-dihydro-1,3-benzoxazol-5-yl}-5-methyl-N2-(3,4,5-trimethyl)phenyl-2,4-pyrimidinediamine]
< 500	O=c1[nH]c2cc(Nc3nc(Nc4cccc(C(O)C(F)(F)F)c4)ncc3F)ccc2o1 (centres unmarked) [Compound I-210, 5-fluoro-N2-[3-(1-hydroxy-2,2,2-trifluoroethyl)]phenyl-N4-(2-oxo-2,3-dihydro-1,3-benzoxazol-5-yl)-2,4-pyrimidinediamine]
< 500	Cc1cc(Nc2ncc(F)c(Nc3cc(F)c4oc(=O)[nH]c4c3)n2)cc(C)c1C [Compound I-188, 5-(2-(3,4,5-trimethylphenylamino)-5-fluoropyrimidin-4-ylamino)-7-fluorobenzo[d]oxazol-2(3H)-one trifluoroacetate salt]
< 500	O=C1CCCc2cc(Nc3ncc(F)c(Nc4ccc5oc(=O)[nH]c5c4)n3)ccc2N1 [II-27, 7-(4-(2,3-dihydro-2-oxobenzo[d]oxazol-5-ylamino)-5-fluoropyrimidin-2-ylamino)-4,5-dihydro-1H-benzo[b]azepin-2(3H)-one trifluoroacetate salt]
> 10000	CCN(c1cc(C)c(C)c(C)c1)c1ncc(C)c(Nc2ccc3oc(=O)[nH]c3c2)n1 [Compound I-139, N2-ethyl-N2-(3,4,5-trimethyl)phenyl-5-methyl-N4-(2-oxo-2,3-dihydro-1,3-benzoxazol-5-yl)-2,4-pyrimidinediamine]

From patent US11174251B2, “Compositions and methods for inhibition of the JAK pathway” (Rigel Pharmaceuticals, Inc., priority 2010, dated 2021)
